Laboratory results published in paper PMC4592236, “Pathogen- and Host-Directed Antileishmanial Effects Mediated by Polyhexanide (PHMB)” (PLoS Neglected Tropical Diseases, 2015).
Counter-ions that a name gives are not always drawn. Like-named read-outs stand apart in the source and are kept apart here.

Assays:
BMDM [1] = assay: Cytokine production by BMDM (ELISA); type: cell-based, BALB/c mice; conditions: BMDM supernatants, 48 h
Description: BMDM were generated from female BALB/c mice as described above in cell culture. 1 × 10^6 BMDM were seeded in a final volume of 0.5 ml in 24-well plates, infected with L. major promastigotes at 15:1 parasite to BMDM ratio, washed and incubated at 37°C for 30 min in complete RPMI medium containing CpG ODN (15 μg/ml). PHMB, CpG ODN or PHMB/CpG ODN polyplexes were added to the pre-activated or control cells and further incubated for 48 h. The supernatants were collected and IL-6, IL-10, IL-4 or TNF-α (Biosciences, Wiesbaden, Germany) concentrations were measured by sandwich ELISA while IL-12p70 was measured by using the IL-12p70 ELISA Ready-SET-Go kit from eBioscience according to the suppliers' instructions.

[2] = system: intracellular L. major amastigotes; assay: microbe, parasite or virus in culture; type: cell-based, Leishmania major; conditions: for IC50: intracellular amastigotes in BMDM, luciferase; for IC50 (μM) amastigotes: Table 2, without dynasore, two independent experiments
Description: The assay is based on bioluminescence measurement of firefly luciferase, which catalyzes the formation of light from ATP and luciferin. The virulent luciferase-transgenic (Luc-tg) L. major strain containing a firefly luciferase reporter gene was maintained by continuous passage in female BALB/c mice and was grown in 96-well blood agar cultures at 27°C, 5% CO2, and 95% humidity. A luciferase-transgenic L. major strain was used to infect BMDM according to our recently established protocol. Briefly, BMDM numbers were adjusted to 2 × 10^5, cultured in 96-well plates and incubated for 4 h to allow adherence to the surface. The promastigote number was adjusted to 3 × 10^6 parasites per ml to achieve an infection rate of 1:15. Then, infection was made by discarding the supernatant of the cultured cells and replacing it with an equal volume of complete RPMI medium containing the promastigotes' suspension. After incubating the infected BMDM (37°C, 5% CO2) for 24 h to allow full differentiation of the promastigotes into amastigotes, the medium containing the extracellular parasites was removed and the wells were washed three times with the same RPMI medium. Five serial dilutions of each substance (1:5) in the same fresh RPMI medium were added to the infected BMDM in duplicate with the appropriate controls. After further 24 h of incubation at 37°C and 5% CO2, the infected BMDM were lysed with a luciferin-containing buffer (Britelite, PerkinElmer, Germany) and luminescence was measured with a luminescence plate reader, Victor X Light 2030 luminometer (PerkinElmer). The IC50 values of the compounds against intracellular amastigotes were calculated based on the intercept theorem, as previously described.

BMDM [3] = assay: AlamarBlue cytotoxicity assay, BMDM; type: cell-based, BALB/c mice; conditions: average of 3–6 independent experiments, read-out: IC50 BMDMs
L. major promastigotes [4] = assay: AlamarBlue assay against L. major promastigotes; type: cell-based, Leishmania major; conditions: for IC50 (μM) promastigotes: Table 2, without dynasore
Description: Cytotoxicities of the different compounds or formulations against mammalian cell (BMDM or 293T epithelial cells) and L. major promastigotes were determined as previously described. Briefly, 4 × 10^4 mammalian cells or 10 × 10^6 virulent L. major promastigotes (MHOM/IL/81/FE/BNI strain) in the log phase of growth were added to each well of 96-well plates and cultured with five increasing concentrations of each compound at 37°C or 27°C for 24 h, respectively. Standard antileishmanial drugs including amphotericin B (A2942), pentamidine isothionate (P0547) and paromomycin sulfate (P9297) from Sigma-Aldrich (Deisenhofen, Germany) and miltefosine (1-hexadecylphosphorylcholine) (Cayman Chemical Company, Ann Arbor, MI, USA) were used as positive controls. The AlamarBlue dye (Trinova Biochem GmbH, Giessen, Germany) was added to each well at 10% concentration and incubated for a further 48 h. The optical density (OD) was then measured by using Multiskan Ascent ELISA reader at a wavelength 550 nm and 630 nm. The OD value or % dye reduction is proportional to viable cell/parasite number and was used for IC50 calculation based on the intercept theorem.

L. major promastigotes [5] = assay: PHMB-FITC uptake into promastigotes (flow cytometry); type: cell-based, Leishmania major; conditions: PHMB-FITC 0.35 μM
BMDM [6] = assay: Cellular uptake by BMDM (flow cytometry); type: cell-based, BALB/c mice; conditions: pre-incubation with inhibitor 30 min, then 4 h
Description: PI and YO-PRO-1 dyes (Life Technologies, Darmstadt, Germany) uptake by the promastigotes was measured by MACS Quant Analyzer (Miltenyi Biotec, Bergisch Gladbach, Germany), and used to indicate membrane integrity. […] L. major promastigotes were treated with 2 μM PHMB for indicated time points and then washed at 3,000 × g for 10 min. The samples were stained by incubating with PI or YO-PRO-1 dyes for 15 min in the dark at RT according to manufacturer’s instructions. The samples were then washed and a total of 100,000 events were immediately acquired by flow cytometry. Similarly, adherent BMDM cells were allowed to take-up fluorescent PHMB (PHMB-FITC conjugate) in the presence or absence of five different pharmacological inhibitors (cytochalasin D (C8273, used at 5 μg/ml), wortmannin (W1628, used at 12.85 μg/ml), chlorpromazine hydrochloride (C8138, used at 10 μg/ml), ikarugamycin (SML0188, used at 1 μM) and dynasore (D7693, used at 25.8 μg/ml), Sigma-Aldrich, Deisenhofen, Germany). PHMB (Polyhexamethylene biguanide; CAS# 27083-27-8; alternative chemical names: polyhexanide, polyamino propylbiguanide, Mw = 2780 g/mol) was provided by the laboratory of Dr. Liam Good and by Tecrea Ltd, London UK (www.tecrea.co.uk), at stock concentrations of 1 mg/ml and 200 mg/ml. […] The data were analyzed using FlowJo software (Tree Star Inc., CA, USA).

[7] = AlamarBlue, average of 3–6 independent experiments
[8] = concentration of PHMB within polyplexes
[9] = concentration of PHMB within polyplexes, listed as Dynasore (80 μM)
[10] = with dynasore (80 μM), concentration of PHMB within polyplexes
[11] = Leishmania major, AlamarBlue, average of 3–6 independent experiments

With “CpG ODN: unmethylated cytosine-phosphate-guanine oligodeoxynucleotide 1668, sequence TCCATGACGTTCCTGATGCT (DNA, backbone not given here)” the “cytokine production (IL-6, IL-10, IL-12)” value (BMDM [1]) was “production of all cytokines tested increased with increasing doses”, the IC50 [2] was greater than 150 µM and the IC50 (BMDM [3]) was greater than 150 µM. The IC50 (L. major promastigotes [4]; [7]) was greater than 150 µM and the IC50 promastigotes (L. major promastigotes [4]; [7]) was “did not show activity”.
For O=C(N/N=C/c1ccc(O)c(O)c1)c1cc2ccccc2cc1O [Dynasore, dynasore], the “inhibition of PHMB-FITC uptake into promastigotes” value (L. major promastigotes [5]) was “more than 98%”, the “IC50 (μM) amastigotes” value [2, 8] was “did not display cytotoxicity” and the “IC50 (μM) amastigotes” value [2, 9] was “No activity”. The “IC50 amastigotes + dynasore (μM)” value [2, 10] was “No activity”, the “IC50 (μM) promastigotes” value (L. major promastigotes [4]; [8]) was “did not display cytotoxicity” and the “IC50 (μM) promastigotes” value (L. major promastigotes [4]; [9]) was “No activity”. For the same compound, the “IC50 promastigotes + dynasore (μM)” value (L. major promastigotes [4]; [10]) was “No activity” and the “inhibition of PHMB-FITC uptake by BMDM” value (BMDM [6]) was 80%.
NC[C@@H]1O[C@H](O[C@H]2[C@@H](O)[C@H](O[C@@H]3[C@@H](O)[C@H](N)C[C@H](N)[C@H]3O[C@H]3O[C@H](CO)[C@@H](O)[C@H](O)[C@H]3N)O[C@@H]2CO)[C@H](N)[C@@H](O)[C@@H]1O [Paromomycin, paromomycin sulfate] gave an IC50 ([2]; Leishmania major) of 1500 ± 112 µM, an IC50 (BMDM [3]; Mus musculus, BMDM) greater than 900 µM and an IC50 (L. major promastigotes [4]; [11]) greater than 500 µM.
CCCCCCCCCCCCCCCCOP(=O)([O-])OCC[N+](C)(C)C [Miltefosine, 1-hexadecylphosphorylcholine] gave an IC50 ([2]; Leishmania major) of 54 ± 8.1 µM, an IC50 (BMDM [3]; Mus musculus, BMDM) of 75.6 ± 10.9 µM and an IC50 (L. major promastigotes [4]; [11]) of 28.3 ± 5.2 µM.
With C[C@@H]1[C@H](O)[C@@H](C)/C=C/C=C/C=C/C=C/C=C/C=C/C=C/[C@H](O[C@@H]2O[C@H](C)[C@@H](O)[C@H](N)[C@@H]2O)C[C@@H]2O[C@](O)(C[C@@H](O)C[C@@H](O)[C@H](O)CC[C@@H](O)C[C@@H](O)CC(=O)O[C@H]1C)C[C@H](O)[C@H]2C(=O)O [Amphotericin B, amphotericin B] the IC50 ([2]; Leishmania major) was 0.099 ± 0.05 µM, the IC50 (BMDM [3]; Mus musculus, BMDM) was greater than 21 µM and the IC50 (L. major promastigotes [4]; [11]) was 0.42 ± 0.5 µM.
Work on N=C(N)c1ccc(OCCCCCOc2ccc(C(=N)N)cc2)cc1 [Pentamidine, pentamidine isothionate] yielded an IC50 ([2]; Leishmania major) of 6.38 ± 2.4 µM, an IC50 (BMDM [3]; Mus musculus, BMDM) of 128 ± 24 µM and an IC50 (L. major promastigotes [4]; [11]) of 16.2 ± 3.1 µM.
